In patent publication US20230331731A1, “CRYSTAL FORM OF PYRROLO HETEROCYCLIC DERIVATIVE AND PREPARATION METHOD THEREFOR” (Jiangsu Hengrui Pharmaceuticals Co., Ltd., priority 2020, published 2023):

Legend:
Format in all cases: physicochemical
[1] = Long-term/accelerated stability study
Description: 1. The hydrobromide in crystal form α was left to stand under 25° C., 60% RH conditions and 40° C., 75% RH conditions to investigate its stability.
4. The fumarate in crystal form II was subjected to 6-month long-term (25° C., 60% RH) and accelerated (40° C., 75% RH) stability studies.

[2] = DVS (dynamic vapor sorption) analysis
Description: DVS refers to dynamic vapor sorption: The measurement was conducted on SMS DVS Advantage; at 25° C., the humidity was changed as follows: 50%-95%-0%-95%-50%, in steps of 10% (5% for the last step) (specific humidity ranges are shown in corresponding graphs, and those listed here were used in most cases); the criterion was dm/dt being no greater than 0.002%.

[3] = Influencing factor stability study
[4] = 40° C., open, 30 days (5/10/30-day study)
[5] = 60° C., open, 30 days (5/10/30-day study)
[6] = 4500 Lux, open, 30 days (5/10/30-day study)
[7] = RH 75%, open, 30 days (5/10/30-day study)

Purity, 1 month ([1]; 25° C., 60%RH): 99.7%
Purity, 2 months ([1]; 25° C., 60%RH): 99.7%
Purity, 3 months ([1]; 25° C., 60%RH): 99.7%
Purity, 6 months ([1]; 25° C., 60%RH, 6 months): 99.7%
Purity, 1 month ([1]; 40° C., 75%RH): 99.7%
Purity, 2 months ([1]; 40° C., 75%RH): 99.7%
Purity, 3 months ([1]; 40° C., 75%RH): 99.7%
Purity, 6 months ([1]; 40° C., 75%RH, 6 months): 99.7%
Purity, Initial ([1]; Initial): 99.7%
physical and chemical stability (conclusion) ([1]; long-term (25° C., 60% RH) and accelerated (40° C., 75% RH) conditions, 6 months): good physical and chemical stability
moisture-absorption weight gain ([2]; accelerated conditions, 70% RH): about 2.75%
moisture-absorption weight gain ([2]; extreme conditions, 90% RH): about 3.85%
moisture-absorption weight gain ([2]; normal conditions, 25° C., 60% RH): about 2.38%
crystal form after DVS analysis ([2]; re-examined after DVS): did not change
Color and appearance ([3]; 40° C., open, 5 days): White solid
Purity ([3]; 40° C., open, 5 days): 99.6%
Color and appearance ([3]; 40° C., open, 10 days): White solid
Purity ([3]; 40° C., open, 10 days): 99.5%
Color and appearance [3, 4]: White solid
Purity [3, 4]: 99.2%
Color and appearance ([3]; 60° C., open, 5 days): White solid
Purity ([3]; 60° C., open, 5 days): 99.5%
Color and appearance ([3]; 60° C., open, 10 days): White solid
Purity ([3]; 60° C., open, 10 days): 99.5%
Color and appearance [3, 5]: White solid
Purity [3, 5]: 98.0%
Color and appearance ([3]; 4500 Lux, open, 5 days): White solid
Purity ([3]; 4500 Lux, open, 5 days): 99.6%
Color and appearance ([3]; 4500 Lux, open, 10 days): White solid
Purity ([3]; 4500 Lux, open, 10 days): 99.6%
Color and appearance [3, 6]: White solid
Purity [3, 6]: 98.4%
Color and appearance ([3]; Initial, 0 days (30-day study)): White solid
Purity ([3]; Initial, 0 days (30-day study)): 99.7%
Color and appearance ([3]; RH 75%, open, 5 days): White solid
Purity ([3]; RH 75%, open, 5 days): 99.7%
Weight gain ([3]; RH 75%, open, 5 days): 0.54%
Color and appearance ([3]; RH 75%, open, 10 days): White solid
Purity ([3]; RH 75%, open, 10 days): 99.7%
Weight gain ([3]; RH 75%, open, 10 days): 1.03%
Weight gain ([3]; RH 75%, open, 30 days): 1.42%
Color and appearance [3, 7]: White solid
Purity [3, 7]: 99.7%
Color and appearance ([3]; RH 90%, open, 5 days): White solid
Purity ([3]; RH 90%, open, 5 days): 99.7%
Weight gain ([3]; RH 90%, open, 5 days): 1.16%
Color and appearance ([3]; RH 90%, open, 10 days): White solid
Purity ([3]; RH 90%, open, 10 days): 99.7%
Weight gain ([3]; RH 90%, open, 10 days): 2.77%
Color and appearance ([3]; RH 90%, open, 30 days): White solid
Purity ([3]; RH 90%, open, 30 days): 99.7%
Weight gain ([3]; RH 90%, open, 30 days): 3.97%
Structure (SMILES): Cn1nccc1Nc1nccc(-c2cc3n(c2)C(=O)N([C@H](CO)c2cccc(Cl)c2)C3)n1.O=C(O)/C=C/C(=O)O [Fumarate in crystal form II]
physical and chemical stability (conclusion) ([3]; high-temperature conditions (40° C. and 60° C.) and high-humidity conditions (75% and 92.5%), 30 days): relatively good physical and chemical stability
